Assay results from paper PMC3813752 (PLoS ONE, 2013).
Read-outs that look alike come from different tables or passages of the source.

What was measured:
human CB1 receptor = human CB1 receptor (Homo sapiens, UniProt P21554); test: biochemical; assay type: binding; details: for Ki: membranes of CHO cells expressing human CB1, three independent experiments in duplicates, read-out: Ki CB1, heterologous competition vs. [3H]CP55,940; for inhibition at 10 µM: vs. [3H]CP55,940, read-out: % inhibition of radioligand binding at CB1
human CB2 receptor [1] = target: T1, human CB2 receptor (Homo sapiens, UniProt P34972); test: Radioligand binding (heterologous competition) vs. [3H]CP55,940 at CB2; details: for inhibition at 10 µM: read-out: % inhibition of radioligand binding at CB2
human GPR18 [2] = target: T2, human GPR18 (Homo sapiens, UniProt Q14330); details: for agonist effect on β-arrestin recruitment at GPR18: test compound 10 µM, related to effect of Δ9-THC 10 µM = 100%; for functional property at GPR18 (agonist/antagonist): in words
T2 sequence (Q14330 1-331): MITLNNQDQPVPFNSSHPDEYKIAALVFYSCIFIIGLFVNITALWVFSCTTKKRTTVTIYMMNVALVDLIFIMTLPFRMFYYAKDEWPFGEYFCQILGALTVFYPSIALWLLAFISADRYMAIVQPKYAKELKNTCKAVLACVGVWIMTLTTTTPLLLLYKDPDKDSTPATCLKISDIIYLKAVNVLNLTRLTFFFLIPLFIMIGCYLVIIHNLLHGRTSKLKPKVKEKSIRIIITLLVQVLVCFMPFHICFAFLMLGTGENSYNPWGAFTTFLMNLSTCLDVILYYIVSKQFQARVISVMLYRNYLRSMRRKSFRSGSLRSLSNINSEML

human GPR18 [3] = target: T2, human GPR18; test: cell-based; details: for inhibition at 10 µM: CHO, read-out: % inhibition of Δ9-THC (10 µM)-induced β-arrestin recruitment at GPR18, test compound at 10 µM; for IC50: GPR18 IC50, β-arrestin recruitment, antagonist mode vs. Δ9-THC (10 µM)
human GPR55 = human GPR55 (Homo sapiens, UniProt Q9Y2T6); test: β-arrestin recruitment assay (PathHunter), CHO cells expressing GPR55; details: for inhibition at 10 µM: CHO; for IC50: antagonist mode vs. LPI (1 µM); for agonist effect on β-arrestin recruitment at GPR55: test compound 10 µM, related to effect of LPI 1 µM = 100%; for functional property at GPR55 (agonist/antagonist): in words
human CB2 receptor [4] = target: T1, human CB2 receptor; test: cAMP accumulation assay, CHO cells expressing CB2; assay type: cell-based; details: in words; standard ligands partly from the literature
[5] = membranes of CHO cells expressing human CB2, three independent experiments in duplicates, read-out: Ki CB2, heterologous competition vs. [3H]CP55,940
[6] = read-out: % inhibition of LPI (1 µM)-induced β-arrestin recruitment at GPR55, test compound at 10 µM
[7] = GPR55 IC50, β-arrestin recruitment
[8] = Ki CB2, heterologous competition vs. [3H]CP55,940, membranes of CHO cells expressing human CB2, three independent experiments in duplicates
[9] = read-out: % inhibition of LPI (1 µM)-induced β-arrestin recruitment at GPR55

T1 sequence (P34972 whole entry): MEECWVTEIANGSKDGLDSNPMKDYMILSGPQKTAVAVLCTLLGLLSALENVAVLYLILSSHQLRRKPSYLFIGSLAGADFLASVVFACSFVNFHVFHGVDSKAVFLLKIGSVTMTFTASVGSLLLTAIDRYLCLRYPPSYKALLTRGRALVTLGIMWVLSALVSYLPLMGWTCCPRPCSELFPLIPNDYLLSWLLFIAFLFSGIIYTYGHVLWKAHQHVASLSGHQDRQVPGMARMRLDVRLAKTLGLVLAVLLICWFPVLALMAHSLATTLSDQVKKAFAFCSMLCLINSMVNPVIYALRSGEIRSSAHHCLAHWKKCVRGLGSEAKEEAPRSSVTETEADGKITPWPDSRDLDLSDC
Sequence of human GPR55 (Q9Y2T6 whole entry): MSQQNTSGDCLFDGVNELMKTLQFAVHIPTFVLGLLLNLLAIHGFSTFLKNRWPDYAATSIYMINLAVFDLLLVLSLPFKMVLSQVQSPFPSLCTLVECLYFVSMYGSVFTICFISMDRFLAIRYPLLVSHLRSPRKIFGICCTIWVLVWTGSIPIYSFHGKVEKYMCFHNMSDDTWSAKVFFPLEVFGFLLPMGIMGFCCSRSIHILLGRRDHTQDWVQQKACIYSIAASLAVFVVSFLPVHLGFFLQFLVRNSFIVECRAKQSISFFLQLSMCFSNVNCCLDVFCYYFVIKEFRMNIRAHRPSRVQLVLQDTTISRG
Sequence of human CB1 receptor (P21554 whole entry): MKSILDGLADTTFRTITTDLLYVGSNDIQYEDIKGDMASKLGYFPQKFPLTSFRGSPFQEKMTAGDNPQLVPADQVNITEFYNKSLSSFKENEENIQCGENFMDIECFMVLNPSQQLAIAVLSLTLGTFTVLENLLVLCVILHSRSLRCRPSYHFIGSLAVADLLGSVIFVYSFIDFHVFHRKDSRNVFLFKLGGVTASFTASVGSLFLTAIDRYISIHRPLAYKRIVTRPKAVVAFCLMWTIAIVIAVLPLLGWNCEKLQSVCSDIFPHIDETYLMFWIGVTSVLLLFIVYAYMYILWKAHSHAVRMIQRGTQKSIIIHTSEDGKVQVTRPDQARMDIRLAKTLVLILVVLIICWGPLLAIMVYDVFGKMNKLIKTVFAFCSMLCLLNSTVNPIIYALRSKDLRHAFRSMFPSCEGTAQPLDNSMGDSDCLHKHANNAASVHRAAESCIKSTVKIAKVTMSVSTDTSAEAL

Row | SMILES | Ki (human CB1 receptor) | Ki (human CB2 receptor [1]; [5]) | agonist effect on β-arrestin recruitment at GPR18 (human GPR18 [2]) | EC50 (human GPR18 [3]) | inhibition at 10 µM (human GPR18 [3]) | IC50 (human GPR18 [3]) | EC50 (human GPR55) | inhibition at 10 µM (human GPR55; [6]) | IC50 (human GPR55; [7]) | agonist effect on β-arrestin recruitment at GPR55 (human GPR55) | inhibition at 10 µM (human CB1 receptor) | also measured
1 | CCc1ccc(O)c(-c2cc(CC)ccc2O)c1 [Compound 42] | 2.13 ± 0.84 µM | 2.87 ± 0.77 µM | 6% | > 10 µM | 12% | > 10 µM | > 10 µM | 0% | > 10 µM | 23% | – | –
2 | CCCCCc1ccc(O)c(-c2ccccc2O)c1 [Compound 48] | 6.59 ± 2.56 µM | 1.16 ± 0.29 µM | 0% | > 10 µM | 18% | > 10 µM | ~10 µM | 25% | > 10 µM | 42% | – | –
3 | CCCCCCc1ccc(O)c(-c2ccccc2O)c1 [Compound 49] | 6.63 ± 5.03 µM | 1.5 ± 0.64 µM | 0% | > 10 µM | 48% | ~10 µM | > 10 µM | 34% | > 10 µM | 39% | – | –
4 | CCCCc1ccc(O)c(-c2cc(C)ccc2O)c1 [Compound 51] | ~1 µM | 1.69 ± 0.53 µM | 0% | > 10 µM | 44% | ~10 µM | > 10 µM | 0% | > 10 µM | 18% | 44% | –
5 | CCCCCc1ccc(O)c(-c2cc(CC)ccc2O)c1 [Compound 56] | 0.634 ± 0.297 µM | 0.161 ± 0.033 µM | 0% | > 10 µM | 95% | 13.6 ± 0.7 µM | > 10 µM | 2% | > 10 µM | 3% | – | –
6 | Cc1ccc(O)c(-c2cc(C)ccc2O)c1 [Compound 41] | > 1 µM | > 1 µM | 20% | > 10 µM | 0% | > 10 µM | > 10 µM | 0% | > 10 µM | 30% | 23% | Ki (human CB2 receptor [1]; [8]): > 0.01 µM; inhibition at 10 µM (human CB2 receptor [1]; at 10 µM, vs. [3H]CP55,940): 30%
7 | CCCc1ccc(O)c(-c2cc(CC)ccc2O)c1 [Compound 54] | ~1 µM | 0.856 ± 0.367 µM | 0% | > 10 µM | 67% | 10.5 ± 0.9 µM | > 10 µM | 19% | > 10 µM | 0% | 43% | –
8 | CCCCc1ccc(O)c(-c2cc(CC)ccc2O)c1 [Compound 55] | 5.76 ± 2.85 µM | 0.235 ± 0.101 µM | 0% | > 10 µM | 40% | ~10 µM | > 10 µM | 18% | > 10 µM | 2% | – | selectivity for CB2 receptors over CB1 (human CB2 receptor [1]; from Ki values): ~25 fold
9 | CCCc1ccc(O)c(-c2cc(C)ccc2O)c1 [Compound 50] | > 1 µM | – | 0% | > 10 µM | 21% | > 10 µM | > 10 µM | 4% | > 10 µM | 26% | 20% | Ki (human CB2 receptor [1]; [8]): 7.38 ± 2.76 µM
10 | CCCc1ccc(O)c(-c2ccccc2O)c1 [Compound 46] | – | – | 0% | > 10 µM | 0% | > 10 µM | > 10 µM | 37% | > 10 µM | 25% | 45% | inhibition at 10 µM (human CB2 receptor [1]; at 10 µM, vs. [3H]CP55,940): 49%; Ki (human CB2 receptor [1]; vs. [3H]CP55,940, read-out: Ki CB2): ~10 µM
11 | CCCCCCc1ccc(O)c(-c2cc(CCCCCC)ccc2O)c1 [Compound 45] | 4.64 ± 0.58 µM | 1.83 ± 0.19 µM | 0% | > 10 µM | 127% | 11.7 ± 2.8 µM | > 10 µM | 0% | > 10 µM | 0% | – | –
12 | CCCCCCc1ccc(O)c(-c2cc(CC)ccc2O)c1 [Compound 57] | 0.386 ± 0.029 µM | – | 0% | > 10 µM | 113% | 12.5 ± 0.8 µM | > 10 µM | 0% | > 10 µM | – | – | Ki (human CB2 receptor [1]; [8]): 0.083 ± 0.0118 µM
13 | CCCCc1ccc(O)c(-c2cc(CCC)ccc2O)c1 [Compound 58] | 3.61 ± 0.17 µM | 0.468 ± 0.133 µM | 0% | > 10 µM | 104% | 13.5 ± 1.7 µM | > 10 µM | 44% | ~10 µM | 21% | – | –
14 | C=CCc1ccc(O)c(-c2ccc(O)c(CC=C)c2)c1 [Compound 10, honokiol, reference compound] | – | – | 0% | > 10 µM | 45% | ~10 µM | > 10 µM | – | ~10 µM | 27% | – | inhibition at 10 µM (human GPR55; [9]): 42%
15 | CCCCCc1ccc(O)c(-c2cc(C)ccc2O)c1 [Compound 52] | 1.23 ± 0.47 µM | 0.517 ± 0.101 µM | 0% | > 10 µM | 45% | ~10 µM | > 10 µM | 0% | > 10 µM | 9% | – | –
16 | Cc1c(C(=O)NN2CCCCC2)nn(-c2ccc(Cl)cc2Cl)c1-c1ccc(Cl)cc1 [Compound 5, rimonabant, reference compound] | – | – | 0% | > 10 µM | 94% | – | – | – | > 10 µM | – | – | functional property at CB2 (agonist/antagonist) (human CB2 receptor [4]): antagonist; functional property at GPR18 (agonist/antagonist) (human GPR18 [2]): antagonist; IC50 (human GPR18 [2]; read-out: GPR18 IC50, β-arrestin recruitment, antagonist mode vs. Δ9-THC (10 µM)): 10.1 ± 1.3 µM; inhibition at 10 µM (human GPR55; [9]): 0%; functional property at GPR55 (agonist/antagonist) (human GPR55): agonist; EC50 (human GPR55; read-out: GPR55 EC50, β-arrestin recruitment, agonist mode): 2.01 ± 0.66 µM
17 | CCCCCCc1ccc(O)c(-c2cc(C)ccc2O)c1 [Compound 53] | 0.822 ± 0.224 µM | 0.273 ± 0.096 µM | 0% | > 10 µM | 118% | 11.5 ± 1.3 µM | > 10 µM | 0% | > 10 µM | 28% | – | –
18 | Oc1ccccc1-c1ccccc1O [Compound 40, 2-(2-hydroxyphenyl)phenol] | > 1 µM | – | – | – | – | – | – | – | – | – | 11% | Ki (human CB2 receptor [1]; [8]): > 1 µM; inhibition at 10 µM (human CB2 receptor [1]): 0%
19 | CCCCCc1cc(O)c2c(c1)OC(C)(C)[C@@H]1CCC(C)=C[C@@H]21 [Compound 1, Δ^9-tetrahydrocannabinol, reference compound] | – | – | – | – | 0% | > 10 µM | > 10 µM | – | – | 0% | – | functional property at CB2 (agonist/antagonist) (human CB2 receptor [4]): agonist; functional property at GPR18 (agonist/antagonist) (human GPR18 [2]): agonist; EC50 (human GPR18 [2]; read-out: GPR18 EC50, β-arrestin recruitment, agonist mode): 4.61 ± 0.5 µM; inhibition at 10 µM (human GPR55; [9]): 65%; functional property at GPR55 (agonist/antagonist) (human GPR55): antagonist; IC50 (human GPR55; read-out: GPR55 IC50, β-arrestin recruitment): 14.2 ± 5.4 µM
20 | CCCc1ccc(O)c(-c2cc(C(C)(C)C)ccc2O)c1 [Compound 59] | 5.81 ± 2.67 µM | 0.489 ± 0.049 µM | 0% | > 10 µM | 54% | ~10 µM | > 10 µM | 54% | ~10 µM | 0% | – | –
21 | CCCCc1ccc(O)c(-c2ccccc2O)c1 [Compound 47] | ~1 µM | 2.03 ± 0.88 µM | 0% | > 10 µM | 24% | > 10 µM | > 10 µM | 35% | > 10 µM | 2% | 40% | –
